Like-named read-outs stand apart in the source and are kept apart here.
Legend:
[1] = test system: HCT116 p53−/−; assay: SRB growth inhibition assay, p53 knocked-out colorectal cells; format: cell-based, human
Protocol: (§1) A total of 5.0 × 10^4 A375-C5, MCF-7, and HCT-116 cells, or 6.0 × 10^4 HPAEpiC cells were seeded in 96-well plates and incubated at 37 °C and 5% CO2 to allow for cell attachment. After 24 h, cells were treated with two-fold serial dilutions of test compounds (0–150 µM), or with DMSO as the compound solvent. In parallel, cells in a time-zero (T0) plate, without treatment, were fixed with 50% (m/v) trichloroacetic acid (TCA, Merck Millipore, Darmstadt, Germany), for 1 h at 4 °C, and then washed with distilled water and left to dry. Forty-eight hours after compound treatment, cells were fixed with 50% TCA and stained with SRB (Sigma-Aldrich Co., Ltd., Gillingham, UK) for 30 min at room temperature, followed by 5 rounds of washing with 1% (v/v) acetic acid (Merck Milli-pore, Darmstadt, Germany). SRB–protein complexes were then solubilized with […] Tris buffer (Sigma-Aldrich Co., Ltd., Gillingham, UK) for 30 min, and the absorbance was measured at 515 nm in a microplate reader (Biotek Synergy 2, BioTek Instruments, Inc., Winooski, VT, USA). A dose-response curve was obtained for each cell line, and the concentration that caused 50% cell growth inhibition (GI50) was calculated.

[2] = test system: HPAEpiC; assay: SRB growth inhibition assay, non-tumor pulmonary alveolar epithelial cells; format: cell-based; conditions: Homo sapiens, Epithelial cell, 48 h
Protocol: (§2) A sulforhodamine B (SRB) assay was performed to evaluate the in vitro growth inhibitory activity of all synthesized hybrids, as well as intermediates in the human tumor cell lines of melanoma (A375-C5), breast adenocarcinoma (MCF-7), and colorectal carcinoma (HCT116), as well as on the non-tumor Human Pulmonary Alveolar Epithelial cell line (HPAEpiC). The concentration inducing 50% cell growth inhibition (GI50), was calculated. […] The overall results prompt us to further investigate the mechanism behind the cytotoxic activities of compounds 6, 7, and 13 in colorectal tumor cells. Moreover, in silico studies were performed, aiming to screen for drug-likeness.
(§3) A375-C5 (melanoma) and MCF-7 (breast adenocarcinoma) cell lines were obtained from the European Collection of Cell Culture, UK, and were grown in RPMI-1640 medium (Roswell Park Memorial Institute, Biochrom, Cambridge, UK) with 5% inactivated FBS (fetal bovine serum, Biochrom). HCT-116 (colon adenocarcinoma) cells were grown in DMEM medium (Dulbecco’s Modified Eagle’s, Biochrom) with 5% inactivated FBS. The non-tumor human pulmonary alveolar epithelial cells (HPAEpiC) were obtained from ScienCell Research Laboratories and grown in DMEM medium supplemented with 10% FBS and 1% non-essential amino acids (Sigma-Aldrich Co., Saint Louis, MO, USA). All cell lines were maintained in a humidified incubator (Hera Cell, Heraeus, Hanau, Germany) at 37 °C and with 5% CO2, and cell viability was regularly monitored using the exclusion trypan blue dye.
as §1

[3] = test system: HCT116 cells; assay: Immunofluorescence of mitotic spindle morphology (anti-α-tubulin); format: cell-based, human; conditions: HCT116, GI50 of the compound, 24 h
Protocol: To understand the mechanism behind the induction of mitotic arrest after treatment with the compound 7, we treated HCT116 cells with the GI50 of the compound. Twenty-four hours later, we performed an immunofluorescence assay using an anti-α-tubulin antibody to visualize the spindle morphology.
Cells were treated as for DAPI staining. After methanol fixation, cells were blocked with 10% FBS in PBST (0.05% Tween-20 in PBS) for 30 min at room temperature, followed by 1 h incubation with a primary antibody (mouse anti-α-tubulin, 1:2500, Sigma-Aldrich Co., Ltd., Gillingham, UK) diluted in 5% FBS in PBST. Then, cells were washed three times in PBST and incubated with an Alexa Fluor 488 conjugated secondary antibody (1:1500, Molecular Probes, Eugene, OR, USA). DNA was stained with DAPI.

[4] = target: T1, p53–MDM2 interaction (Homo sapiens, UniProt Q00987); assay: Yeast targeted screening assay of p53–MDM2 interaction; conditions: 10 μM, yeast cell-based assay, data not shown
T1 construct: expressed in transfected cells; host or cells: Saccharomyces cerevisiae strain CG379
Protocol: However, since CM-M345 (1) has been previously reported as a p53-MDM2 inhibitor by our research group, the effect of 10 μM of compounds 6, 7, and 13 on the p53–MDM2 interaction was analyzed using yeast cell-based assays.
Saccharomyces cerevisiae (strain CG379) expressing human wt p53 alone and combined with human MDM2 were obtained in previous works. For the expression of human proteins (routinely grown in minimal selective medium), cells were diluted to 0.05 OD600 in selective induction medium containing 2% (w/w) galactose, 1% (w/w) raffinose, 0.7% (w/w) yeast nitrogen base without amino acids from Difco (Quilaban, Sintra, Portugal), and all the amino acids required for yeast growth ([…]) except leucine and tryptophan. Yeast cells were incubated at 30 °C under continuous orbital shaking (200 rpm) with 10 µM compounds or 0.1% DMSO only, for approximately 42 h (time required by the control yeast, co-transformed with the empty vectors and incubated with DMSO only, to achieve 0.4 OD600). Yeast growth was analyzed by counting the number of colony-forming units (CFU) after 2 days of incubation at 30 °C on Sabouraud Dextrose Agar from Liofilchem (Frilabo, Porto, Portugal).

[5] = test system: A375-C5; assay: Sulforhodamine B (SRB) growth inhibition assay, melanoma cells; format: cell-based; conditions: Homo sapiens, 48 h
Protocol: as §2, §3, §1

[6] = test system: MCF-7; assay: SRB growth inhibition assay, breast adenocarcinoma cells; format: cell-based; conditions: Homo sapiens, MCF7, 48 h
Protocol: as §2, §3, §1

[7] = test system: HCT116 (HCT116 p53+/+); assay: SRB growth inhibition assay, colorectal carcinoma cells; format: cell-based; conditions: Homo sapiens, HCT-116
Protocol: as §2, §3, §1

T1 sequence (Q00987 whole entry): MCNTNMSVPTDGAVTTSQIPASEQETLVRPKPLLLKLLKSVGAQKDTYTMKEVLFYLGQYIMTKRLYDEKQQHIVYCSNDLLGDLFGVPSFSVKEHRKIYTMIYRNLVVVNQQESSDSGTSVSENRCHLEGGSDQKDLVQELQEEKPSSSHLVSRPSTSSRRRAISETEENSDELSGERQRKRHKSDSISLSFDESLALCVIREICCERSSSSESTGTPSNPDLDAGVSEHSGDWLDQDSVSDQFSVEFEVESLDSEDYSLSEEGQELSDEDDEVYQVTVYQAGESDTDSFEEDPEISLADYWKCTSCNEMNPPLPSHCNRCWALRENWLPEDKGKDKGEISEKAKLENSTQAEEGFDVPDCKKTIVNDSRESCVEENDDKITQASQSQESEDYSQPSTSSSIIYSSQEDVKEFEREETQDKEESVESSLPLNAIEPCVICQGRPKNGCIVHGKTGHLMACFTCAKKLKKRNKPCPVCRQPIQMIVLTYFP

SI, selective index (GI50 of HCT116 p53−/−/GI50 of HCT116 p53+/+) [1]: 0.40
GI50 ([1]; Homo sapiens, HCT-116, Table 2, 48 h): 1.3 ± 0.09 µM
GI50 [5]: 32.1 ± 1.27 µM
GI50 [6]: > 75 µM
GI50 ([7]; SRB, 48 h, read-out: GI50 HCT116): 3.26 ± 1.39 µM
GI50 ([7]; Table 2, 48 h, read-out: GI50 HCT116 p53+/+): 3.26 ± 1.39 µM
SMILES: CCCc1c(OCCNC(=O)/C=C/c2cc(OC)c(OC)c(OC)c2)ccc(C(=O)/C=C/c2cc(OC)c(OC)c(OC)c2)c1O [Compound 7, (E)-N-(2-(3-hydroxy-2-propyl-4-((E)-3-(3,4,5-trimethoxyphenyl)acryloyl)phenoxy)ethyl)-3-(3,4,5-trimethoxyphenyl)acrylamide]
GI50 [2]: 57.2 ± 8.68 µM
Cells with collapsed (monopolar-like) mitotic spindles [3]: 91.41 ± 4.87%
Percentage of bipolar spindles [3]: 6.57 ± 2.13%
Effect on the p53–MDM2 interaction (reversal of the negative growth effect of MDM2 on p53) [4]: none of the tested compounds significantly reversed the negative inhibitory growth effect of MDM2 on p53

— publication PMC10303900, “Discovery of a New Chalcone-Trimethoxycinnamide Hybrid with Antimitotic Effect: Design, Synthesis, and Structure—Activity Relationship Studies” (Pharmaceuticals, 2023)
